Measured values taken from patent publication US20240381871A1, “5-HALOALKOXY-PYRIMIDINE COMPOUNDS AS HERBICIDES” (SYNGENTA CROP PROTECTION AG, priority 2020, published 2024).

What was measured:
Format in all cases: in vivo
Ipomea hederacea (IPOHE) = experiment: Comparative post-emergence test, weed control; settings: Ipomoea hederacea, 336 h, after 14 days, read-out: IPOHE damage (100=total damage to plant; 0=no damage)
Experimental: (§1) Seeds of test species were sown in standard soil in pots. After cultivation for 10 days (post-emergence) under controlled conditions in a glasshouse (at 24/16° C., day/night; 14 hours light; 65% humidity), the plants were sprayed with an aqueous spray solution derived from the formulation of the technical active ingredient in 0.6 ml acetone and 45 ml formulation solution containing 10.6% Emulsogen EL (Registry number 61791-12-6), 42.2% N-methyl pyrrolidone, 42.2% dipropylene glycol monomethyl ether (CAS RN 34590-94-8) and 0.2% X-77 (CAS RN 11097-66-8). The test plants were then grown in a glasshouse under controlled conditions in a glasshouse (at 24/16° C., day/night; 14 hours light; 65% humidity) and watered twice daily. After 14 days, the test was evaluated (100=total damage to plant; 0=no damage to plant). • Weeds: Ipomea hederacea (IPOHE) • Crops: Zea mays (ZEAMX)

[1] = tested on: Abutilon theophrasti (ABUTH); experiment: Post-emergence herbicidal glasshouse test; settings: rate 250, evaluated after 13 days, the values are:
Experimental: (§2) Seeds of a variety of test species are sown in standard soil in pots, Amaranthus retoflexus (AMARE), Abutilon theophrasti (ABUTH), Setaria faberi (SETFA), Echinochloa crus-galli (ECHCG) and Ipomoea hederacea (IPOHE). After cultivation for one day (pre-emergence) or after 8 days cultivation (post-emergence) under controlled conditions in a glasshouse (at 24/16° C., day/night; 14 hours light; 65% humidity), the plants are sprayed with an aqueous spray solution derived from the formulation of the technical active ingredient in acetone/water (50:50) solution containing 0.5% Tween 20 (polyoxyethelyene sorbitan monolaurate, CAS RN 9005-64-5). Compounds are applied at 1000 g/ha unless otherwise stated. The test plants are then grown in a glasshouse under controlled conditions in a glasshouse (at 24/16° C., day/night; 14 hours light; 65% humidity) and watered twice daily. After 13 days for pre and post-emergence, the test is evaluated for the percentage damage caused to the plant.

Setaria faberi (SETFA) [2] = experiment: Post-emergence herbicidal glasshouse test; settings: rate 250, evaluated after 13 days, the values are:
Experimental: as §2

[3] = tested on: Ipomoea hederacea (IPOHE); experiment: Post-emergence herbicidal glasshouse test; settings: rate 250, evaluated after 13 days, the values are: phytotoxicity score (1-5 scale)
Experimental: as §2

[4] = tested on: Echinochloa crus-galli (ECHCG); experiment: Post-emergence herbicidal glasshouse test; settings: rate 250, evaluated after 13 days, the values are: phytotoxicity score (1-5 scale)
Experimental: as §2

[5] = tested on: Amaranthus retoflexus (AMARE); experiment: Post-emergence herbicidal glasshouse test; settings: rate 250, evaluated after 13 days, the values are: phytotoxicity score (1-5 scale)
Experimental: as §2

Zea mays (ZEAMX) = experiment: Comparative post-emergence test, crop damage; settings: 336 h, after 14 days, read-out: ZEAMX damage (100=total damage to plant; 0=no damage)
Experimental: as §1

[6] = tested on: Abutilon theophrasti (ABUTH); experiment: Pre-emergence herbicidal glasshouse test; settings: rate 250, evaluated after 13 days, the values are:
Experimental: as §2

Setaria faberi (SETFA) [7] = experiment: Pre-emergence herbicidal glasshouse test; settings: rate 250, evaluated after 13 days, the values are: phytotoxicity score (1-5)
Experimental: as §2

[8] = tested on: Ipomoea hederacea (IPOHE); experiment: Pre-emergence herbicidal glasshouse test; settings: rate 250, evaluated after 13 days, the values are:
Experimental: as §2

[9] = tested on: Echinochloa crus-galli (ECHCG); experiment: Pre-emergence herbicidal glasshouse test; settings: rate 250, evaluated after 13 days, the values are: phytotoxicity score (1-5)
Experimental: as §2

[10] = tested on: Amaranthus retoflexus (AMARE); experiment: Pre-emergence herbicidal glasshouse test; settings: rate 250, evaluated after 13 days, the values are:
Experimental: as §2

Row | SMILES | pest or weed control at 2 g/ha (Ipomea hederacea (IPOHE)) [%] | pest or weed control at 8 g/ha (Ipomea hederacea (IPOHE)) [%] | pest or weed control at 60 g/ha (Ipomea hederacea (IPOHE)) [%] | pest or weed control at 125 g/ha (Ipomea hederacea (IPOHE)) [%] | pest or weed control at 250 g/ha (Ipomea hederacea (IPOHE)) [%] | pest or weed control at 500 g/ha (Ipomea hederacea (IPOHE)) [%] | Post-emergence activity ABUTH (% phytotoxicity) [1] | Post-emergence activity SETFA (% phytotoxicity) (Setaria faberi (SETFA) [2]) | Post-emergence activity IPOHE (% phytotoxicity) [3] | Post-emergence activity ECHCG (% phytotoxicity) [4] | Post-emergence activity AMARE (% phytotoxicity) [5] | plant injury at 60 g/ha (Zea mays (ZEAMX)) [%] | plant injury at 125 g/ha (Zea mays (ZEAMX)) [%] | plant injury at 250 g/ha (Zea mays (ZEAMX)) [%] | plant injury at 500 g/ha (Zea mays (ZEAMX)) [%] | Pre-emergence activity ABUTH (% phytotoxicity) [6] | Pre-emergence activity SETFA (% phytotoxicity) (Setaria faberi (SETFA) [7]) | Pre-emergence activity IPOHE (% phytotoxicity) [8] | Pre-emergence activity ECHCG (% phytotoxicity) [9] | Pre-emergence activity AMARE (% phytotoxicity) [10] | also measured
1 | FC(F)Oc1cnc(Oc2ccccc2-c2cc(C(F)F)no2)nc1 [Compound 1.003] | 10 | 20 | 30 | 70 | 70 | 90 | 4 | 3 | 4 | 3 | 4 | 0 | 0 | 0 | 10 | 4 | 4 | 3 | 2 | 5 | plant injury at 2 g/ha (Zea mays (ZEAMX)): 0%; plant injury at 8 g/ha (Zea mays (ZEAMX)): 0%
2 | FC(F)Oc1cnc(Oc2cccc(Cl)c2-c2cc(C(F)F)no2)nc1 [Compound 1.004] | 20 | 50 | 70 | 70 | 90 | 90 | 4 | 4 | 4 | 4 | 4 | 0 | 10 | 20 | 40 | 4 | 5 | 5 | 4 | 5 | plant injury at 2 g/ha (Zea mays (ZEAMX)): 0%; plant injury at 8 g/ha (Zea mays (ZEAMX)): 0%
3 | FC(F)Oc1cnc(Oc2cccc(Br)c2-c2cc(C(F)F)no2)nc1 [Compound 1.005] | 30 | 20 | 40 | 70 | 90 | 80 | 4 | 4 | 5 | 3 | 4 | 10 | 20 | 30 | 30 | 3 | 5 | 4 | 3 | 5 | –
